According to US8592181B2, “Brazzein variant having higher sweetness and method for preparing multi-variant” (Chung-Ang University Industry-Academy Cooperation Foundation, priority 2009, dated 2013):

Tested on: human sense of taste
Test: Sweetness measured by human sense of taste (20 trained subjects, minimum concentration at which sweetness is first sensed)
Format: in vivo
Settings: for Multiples of increased sweetness to minor-type brazzein: relative to minor-type brazzein; for Minimum stimulation level in which one senses sweetness for first time: 20 trained subjects; for Sweetness ratios of sucrose (1 g/100 ml) to primary brazzein variants (minor-type brazzein: 2000) / Sweetness ratios of sucrose (1 g/100 ml) to brazzein multi-variants: relative to 1 g/100 ml sucrose threshold
Procedure: Since the recombinant brazzein according to the present invention is not a sucrose-based compound having a cyclic ring, the sweetness of the recombinant brazzein was not measured using a saccharometer. Therefore, the activity of the recombinant brazzein was measured using the human sense of taste. Sugar content measurement was performed on 20 subjects who were trained to feel substantially the same minimum concentration of sucrose in which they could sense sweetness using a sucrose solution. That is, a concentration of each brazzein variant in which the subjects could sense sweetness for the first time was measured. Also, a sweetness ratio of the sucrose solution to the wild-type brazzein was 1 g/100 ml, which was a minimum stimulation level in which the subjects could sense sweetness. Also, a sweetness ratio of the minor-type brazzein protein to the wild-type brazzein was 500 μg/100 ml, which was a minimum stimulation level in which the subjects could sense sweetness. Therefore, the sweetness was calculated using the sweetness ratios (That is, 1/0.0005=2000 for the minor-type brazzein).
Also, the brazzein multi-variants were measured for activity (sweetness) in the same manner as in Example 3-1.

Row | Substance | Multiples of increased sweetness to minor-type brazzein (primary brazzein variants) | Minimum stimulation level in which one senses sweetness for first time (primary brazzein variants) | Sweetness ratios of sucrose (1 g/100 ml) to primary brazzein variants (minor-type brazzein: 2000) | Multiples of increased sweetness to minor-type brazzein (brazzein multi-variants) | Sweetness ratios of sucrose (1 g/100 ml) to brazzein multi-variants
1 | K29H: primary brazzein variant: Lys at position 29 of minor-type brazzein substituted with His (DKCKKVYENYPVSKCQLANQCNYDCKLRHHARSGECFYDEKRNLQCICDYCEY; Brazzein(K29H)) [Brazzein K29H] | 0.05 | 10,000 μg/100 ml | 100 | – | –
2 | R32A: primary brazzein variant: Arg at position 32 of minor-type brazzein substituted with Ala (DKCKKVYENYPVSKCQLANQCNYDCKLRKHAASGECFYDEKRNLQCICDYCEY; Brazzein(R32A)) [Brazzein R32A] | 0.08 | 6,000 μg/100 ml | 167 | – | –
3 | H30R_E40K: secondary brazzein variant of minor-type brazzein with substitutions H30R and E40K (DKCKKVYENYPVSKCQLANQCNYDCKLRKRAKSGECFYDKKRNLQCICDYCEY; Brazzein(H30R_E40K)) [Brazzein H30R_E40K] | – | – | – | 5 | 10,000
4 | R42D: primary brazzein variant: Arg at position 42 of minor-type brazzein substituted with Asp (DKCKKVYENYPVSKCQLANQCNYDCKLRKHARSGECFYDEKDNLQCICDYCEY; Brazzein(R42D)) [Brazzein R42D] | 0.05 | 10,000 μg/100 ml | 100 | – | –
5 | K29D: primary brazzein variant: Lys at position 29 of minor-type brazzein substituted with Asp (DKCKKVYENYPVSKCQLANQCNYDCKLRDHARSGECFYDEKRNLQCICDYCEY; Brazzein(K29D)) [Brazzein K29D] | 0.05 | 10,000 μg/100 ml | 100 | – | –
6 | R42H: primary brazzein variant: Arg at position 42 of minor-type brazzein substituted with His (DKCKKVYENYPVSKCQLANQCNYDCKLRKHARSGECFYDEKHNLQCICDYCEY; Brazzein(R42H)) [Brazzein R42H] | 0.16 | 3,000 μg/100 ml | 334 | – | –
7 | K5H: primary brazzein variant: Lys at position 5 of minor-type brazzein substituted with His (DKCKHVYENYPVSKCQLANQCNYDCKLRKHARSGECFYDEKRNLQCICDYCEY; Brazzein(K5H)) [Brazzein K5H] | 0.05 | 10,000 μg/100 ml | 100 | – | –
8 | R32D: primary brazzein variant: Arg at position 32 of minor-type brazzein substituted with Asp (DKCKKVYENYPVSKCQLANQCNYDCKLRKHADSGECFYDEKRNLQCICDYCEY; Brazzein(R32D)) [Brazzein R32D] | 0.05 | 10,000 μg/100 ml | 100 | – | –
9 | H30K: primary brazzein variant: His at position 30 of minor-type brazzein substituted with Lys (DKCKKVYENYPVSKCQLANQCNYDCKLRKKARSGECFYDEKRNLQCICDYCEY; Brazzein(H30K)) [Brazzein H30K] | 2 | 250 μg/100 ml | 4,000 | – | –
10 | E35D_E40K: secondary brazzein variant of minor-type brazzein with substitutions E35D and E40K (DKCKKVYENYPVSKCQLANQCNYDCKLRKHAKSGDCFYDKKRNLQCICDYCEY; Brazzein(E35D_E40K)) [Brazzein E35D_E40K] | – | – | – | 4 | 8,000
11 | K5R: primary brazzein variant: Lys at position 5 of minor-type brazzein substituted with Arg (DKCKRVYENYPVSKCQLANQCNYDCKLRKHARSGECFYDEKRNLQCICDYCEY; Brazzein(K5R)) [Brazzein K5R] | 0.05 | 10,000 μg/100 ml | 100 | – | –
12 | K5E: primary brazzein variant: Lys at position 5 of minor-type brazzein substituted with Glu (DKCKEVYENYPVSKCQLANQCNYDCKLRKHARSGECFYDEKRNLQCICDYCEY; Brazzein(K5E)) [Brazzein K5E] | 0.08 | 6,000 μg/100 ml | 167 | – | –
13 | E35D_E40R: secondary brazzein variant of minor-type brazzein with substitutions E35D and E40R (DKCKKVYENYPVSKCQLANQCNYDCKLRKHAKSGDCFYDRKRNLQCICDYCEY; Brazzein(E35D_E40R)) [Brazzein E35D_E40R] | – | – | – | 6 | 12,000
14 | K5D: primary brazzein variant: Lys at position 5 of minor-type brazzein substituted with Asp (DKCKDVYENYPVSKCQLANQCNYDCKLRKHARSGECFYDEKRNLQCICDYCEY; Brazzein(K5D)) [Brazzein K5D] | 0.08 | 6,000 μg/100 ml | 167 | – | –
15 | R32H: primary brazzein variant: Arg at position 32 of minor-type brazzein substituted with His (DKCKKVYENYPVSKCQLANQCNYDCKLRKHAHSGECFYDEKRNLQCICDYCEY; Brazzein(R32H)) [Brazzein R32H] | 0.16 | 3,000 μg/100 ml | 334 | – | –
